Results published in patent US6107317A, “N-(substituted glycyl)-thiazolidines, pharmaceutical compositions containing them and their use in inhibiting dipeptidyl peptidase-IV” (Novartis AG, priority 1999, dated 2000).
Structures can show the parent of a compound that is named as a salt.

Assays:
[1] = diabetic and non-diabetic subjects, Diabetes, Vol. 44, pgs. 1126-1131; cited from earlier work
rat plasma DPP-IV = target: T1, rat plasma DPP-IV (Rattus norvegicus, UniProt P14740); test: DPP-IV activity in rat plasma; format: biochemical; details: substrate H-Glycine-Proline-AMC, pH 7.8, room temperature, 20 min
T1 construct: DPP-IV activity in human and rat plasma; from tissue; host or cells: rat plasma
Description: (§1) Briefly, five μl of plasma are added to 96-well flat-bottom mictotiter plates (Falcon), followed by the addition of 5 μl of 80 mM MgCl2 in incubation buffer (25 mM HEPES, 140 mM NaCl, 1% RIA-grade BSA, pH 7.8). After a 5 min. incubation at room temperature, the reaction is initiated by the addition of 10 μl of incubation buffer containing 0.1 mM substrate (H-Glycine-Proline-AMC; AMC is 7-amino-4-methylcoumarin). The plates are covered with aluminum foil (or kept in the dark) and incubated at room temperature for 20 min. […] A fluorescence-concentration curve of free AMC is generated using 0-50 μM solutions of AMC in assay buffer. The curve generated is linear and is used for interpolation of substrate consumption (catalytic activity in nmoles substrate cleaved/min). As with the previous assay, the potency of the test compounds as DPP-IV inhibitors, expressed as IC50, is calculated from 8-point, dose-response curves using a 4 parameter logistic function.

DPP-IV = target: T2, DPP-IV (Homo sapiens, UniProt P27487); test: Caco-2 DPP-IV Assay (inhibition of DPP-IV activity from human colonic carcinoma cell extracts); format: biochemical; details: solubilized Caco-2 protein 20 μg; substrate H-Alanine-Proline-pNA; pH 7.4; room temperature, 10 minutes
T2 construct: host or cells: Caco-2, differentiated to induce DPP-IV expression; cell extract solubilized in 0.5% nonidet-P40
Description: The human colonic carcinoma cell line Caco-2 was obtained from the American Type Culture Collection (ATCC HTB 37). Differentiation of the cells to induce DPP-IV expression was accomplished as described by Reisher, et al. in an article entitled "Increased expression of . . . intestinal cell line Caco-2" in Proc. Natl. Acad. Sci., Vol. 90, pgs. […] Cell extract is prepared from cells solubilized in 10 mM Tris-HCl, 0.15 M NaCl, 0.04 t.i.u. aprotinin, 0.5% nonidet-P40, pH 8.0, which is centrifuged at 35,000 g for 30 min. at 4° C. to remove cell debris. The assay is conducted by adding 20 μg solubilized Caco-2 protein, diluted to a final volume of 125 μl in assay buffer (25 mM Tris-HCl pH 7.4, 140 mM NaCl, 10 mM KCl, 1% bovine serum albumin) to microtiter plate wells. The reaction is initiated by adding 25μl of 1 mM substrate (H-Alanine-Proline-pNA; pNA is p-nitroaniline). The reaction is run at room temperature for 10 minutes after which time a 19 μl volume of 25% glacial acetic acid is added to stop the reaction. […] A standard curve of free p-nitroaniline is generated using 0-500 μM solutions of free pNA in assay buffer. The curve generated is linear and is used for interpolation of substrate consumption (catalytic activity in nmoles substrate cleaved/min). […] The potency of the test compounds as DPP-IV inhibitors, expressed as IC50, is calculated from 8-point, dose-response curves using a 4-parameter logistic function.

human plasma DPP-IV = target: T3, human plasma DPP-IV (Homo sapiens, UniProt P27487); test: DPP-IV activity in human plasma; format: biochemical; details: substrate H-Glycine-Proline-AMC, pH 7.8, room temperature, 20 min
T3 construct: DPP-IV activity in human and rat plasma; from tissue; host or cells: human plasma
Description: as §1

T1 sequence (P14740 37-767 limits assumed): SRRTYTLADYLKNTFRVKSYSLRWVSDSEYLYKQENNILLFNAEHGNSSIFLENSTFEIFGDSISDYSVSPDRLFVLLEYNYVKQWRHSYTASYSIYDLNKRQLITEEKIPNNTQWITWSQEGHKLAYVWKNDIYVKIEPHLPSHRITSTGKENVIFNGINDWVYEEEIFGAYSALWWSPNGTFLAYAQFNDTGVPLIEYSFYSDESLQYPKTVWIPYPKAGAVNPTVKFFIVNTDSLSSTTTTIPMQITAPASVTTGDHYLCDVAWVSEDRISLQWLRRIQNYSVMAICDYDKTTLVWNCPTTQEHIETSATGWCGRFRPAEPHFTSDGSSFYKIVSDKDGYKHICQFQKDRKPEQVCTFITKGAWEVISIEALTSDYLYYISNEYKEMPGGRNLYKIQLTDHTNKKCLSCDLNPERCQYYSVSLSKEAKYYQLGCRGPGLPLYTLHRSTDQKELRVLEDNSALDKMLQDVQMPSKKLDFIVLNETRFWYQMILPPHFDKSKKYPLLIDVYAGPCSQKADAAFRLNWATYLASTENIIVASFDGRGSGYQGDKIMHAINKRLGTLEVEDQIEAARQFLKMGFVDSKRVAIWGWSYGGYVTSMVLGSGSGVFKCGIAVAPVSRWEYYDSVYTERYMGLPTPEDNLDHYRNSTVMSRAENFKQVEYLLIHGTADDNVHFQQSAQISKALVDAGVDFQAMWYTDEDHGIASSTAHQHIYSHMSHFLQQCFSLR
T3 sequence (P27487 39-766 limits assumed): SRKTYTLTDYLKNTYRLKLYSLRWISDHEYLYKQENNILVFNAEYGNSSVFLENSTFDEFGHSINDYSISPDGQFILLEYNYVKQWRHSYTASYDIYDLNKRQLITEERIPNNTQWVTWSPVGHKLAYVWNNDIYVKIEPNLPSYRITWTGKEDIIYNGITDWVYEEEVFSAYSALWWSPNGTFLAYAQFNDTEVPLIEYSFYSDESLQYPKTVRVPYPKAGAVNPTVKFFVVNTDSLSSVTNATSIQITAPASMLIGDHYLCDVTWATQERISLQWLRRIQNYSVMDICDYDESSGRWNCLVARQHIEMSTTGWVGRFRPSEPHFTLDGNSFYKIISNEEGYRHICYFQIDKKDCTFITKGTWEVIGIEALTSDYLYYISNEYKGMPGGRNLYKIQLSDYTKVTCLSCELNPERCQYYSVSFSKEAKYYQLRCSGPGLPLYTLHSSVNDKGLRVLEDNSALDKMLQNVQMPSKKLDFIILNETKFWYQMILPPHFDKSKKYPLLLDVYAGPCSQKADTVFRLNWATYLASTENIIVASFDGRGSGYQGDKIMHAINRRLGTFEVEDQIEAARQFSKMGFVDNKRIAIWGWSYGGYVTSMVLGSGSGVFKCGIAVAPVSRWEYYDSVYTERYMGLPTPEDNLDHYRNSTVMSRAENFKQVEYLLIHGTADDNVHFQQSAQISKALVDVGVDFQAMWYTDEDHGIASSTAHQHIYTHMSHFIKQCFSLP
T2 sequence (P27487 whole entry): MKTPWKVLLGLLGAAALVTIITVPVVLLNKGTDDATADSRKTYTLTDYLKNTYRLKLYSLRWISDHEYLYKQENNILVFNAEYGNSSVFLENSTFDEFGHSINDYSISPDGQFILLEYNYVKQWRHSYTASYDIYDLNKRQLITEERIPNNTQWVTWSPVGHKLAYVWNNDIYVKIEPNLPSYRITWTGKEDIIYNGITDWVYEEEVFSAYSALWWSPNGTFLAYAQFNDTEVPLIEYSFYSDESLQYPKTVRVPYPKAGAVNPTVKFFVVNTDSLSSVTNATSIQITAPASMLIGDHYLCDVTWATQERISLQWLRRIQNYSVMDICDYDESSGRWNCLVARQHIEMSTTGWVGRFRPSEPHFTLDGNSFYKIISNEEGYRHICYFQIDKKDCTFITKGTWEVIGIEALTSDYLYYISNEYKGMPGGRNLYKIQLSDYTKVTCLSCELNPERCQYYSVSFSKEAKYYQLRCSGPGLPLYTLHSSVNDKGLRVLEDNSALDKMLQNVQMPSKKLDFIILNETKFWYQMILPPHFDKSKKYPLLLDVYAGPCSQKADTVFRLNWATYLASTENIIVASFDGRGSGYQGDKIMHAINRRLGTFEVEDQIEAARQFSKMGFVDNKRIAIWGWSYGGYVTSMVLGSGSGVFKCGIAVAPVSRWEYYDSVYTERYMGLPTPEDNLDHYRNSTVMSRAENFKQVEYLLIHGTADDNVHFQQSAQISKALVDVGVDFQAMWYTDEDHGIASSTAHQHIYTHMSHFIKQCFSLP

| Compound | degradation when administered by subcutaneous or intravenous routes [1] | IC50 (rat plasma DPP-IV) [µM] | IC50 (DPP-IV) [µM] | IC50 (human plasma DPP-IV) [µM] |
| --- | --- | --- | --- | --- |
| GLP-I amide: GLP-I amide | rapidly degraded | – | – | – |
| O=C(CNCCNc1ccc(Cl)cn1)N1CCSC1 [Ex. 4, 1-[2-[(5-chloropyridin-2-yl)amino]ethylamino]acetylthiazolidine] | – | 7.1 | 31.1 | 21 |
| O=C(CNCCNc1ccccn1)N1CCSC1 [Ex. 1, 1-[2-[(pyridin-2-yl)amino]ethylamino]acetylthiazolidine dihydrochloride] | – | 10.5 | 10.3 | 6.8 |
| O=C(CNC1(CO)CCCC1)N1CCSC1 [Ex. 2, 1-[(1-hydroxymethylcyclopent-1-yl)amino]acetylthiazolidine hydrochloride] | – | 3.3 | 25.3 | 5.7 |
